Values joined by “and” are separate entries in the source; they are usually repeats but may differ in a detail not shown here. Equal entries are not always repeated.
Experiments:
tMCAO animal model = conditions: Molecular Neurobiology 55(9859), January 2018; cited from earlier work
[1] = tested on: patients with acute ischemic stroke; experiment: Phase II clinical test: Korean version of modified Rankin Scale (K-mRS) at day 90; assay type: in vivo, human
Experimental: (§1) A multi-organ, randomly allocated, double-blind, placebo-controlled, and initial phase II clinical test was conducted on patients with acute ischemic stroke to explore and evaluate the efficacy and safety of the study drug, respectively. This clinical test includes a total of three cohorts, and test subject registration starts from Cohort 1, and when the safety is secured, Cohort 2 is sequentially registered. The registration of Cohort 2 proceeds when the safety is secured after evaluation by the Data Safety Monitoring Board (DSMB) at the time point when all the test subjects of Cohort 1 completed Visit 5 (Day 29). Cohorts 1 and 2 are for confirming the safety and efficacy of the test drug, and based on this, the dose and dosage regimen, and the like of Cohort 3 are determined.
(§2) This clinical test is conducted on patients with modified thrombolysis in cerebral infarction (mTICI) 2b or 3 grade reperfusion in angiography after endovascular recanalization therapy (ERT) among patients with severe ischemic stroke in moderate cases confirmed to have undergone acute cerebral artery occlusion of the anterior circulation system. Intravenous tissue plasminogen activator (IV tPA) intravenous administration is permitted when the stroke is indicated before ERT. Furthermore, when angiography is performed for ERT after intravenous tPA administration, patients who have already undergone mTICI 2b-3 reperfusion by a venous tPA effect alone before ERT also become a subject of the clinical test.
(§3) The following Cohorts 1 to 3 are administered using an infusion pump after mixing a test drug or control drug with an infusion solution.
(§4) Cohort 1. Low-Dose Administration Group • Test drug group: administration of the test drug is started within 30 minutes after reperfusion is confirmed within 6 hours after the onset of the symptom. Immediately after intravenous administration (bolus) of 150 mg of the test drug for 15 minutes, 750 mg of the test drug is intravenously IV infused for 23 hours and 45 minutes (f2 hours). Administration of the test drug should be started within 6.5 hours after the onset of the symptom. • Control drug group: a placebo is administered in the same manner as in the test drug group.
as §4, with “2. High-Dose” for “1. Low-Dose”, “300” for “150”, “30” for “15”, “1500” for “750”, “30” for “45”, “(±2” for “(f2”
The most widely used method for evaluating disability or dependence in daily life for people who have suffered from stroke or other neurological disorders is the Korean version of a modified Rankin Scale (K-mRS). The K-mRS is a global functional outcome scale which evaluates disability due to stroke and is the most universally used scale in stroke clinical tests. The K-mRS distribution shift analysis is a method of comparing the overall prognosis of the test group and the control group, and is the most recommended analysis method in clinical tests for acute stroke treatment methods including neuroprotective agents. The K-mRS is a scale of evaluating the patient's global functionality according to the independence of daily life and the degree to which the patient needs others' help, and is divided into 0 to 6 phases (0: normal, 5: severe disability, and 6: death). At the time points of days 29 and 90, a proportion of the K-mRS score evaluated by the evaluator is presented, and the pre-mRS evaluated at the time of screening is used as basic disease information. […]

healthy male volunteers [2] = experiment: Phase 1 clinical test, single dose escalation: adverse reactions; assay type: in vivo, human
Experimental: (§5) In order to evaluate the safety at the time of a single dose of a test drug, a phased clinical test was conducted as determined by the Data Safety Monitoring Board (DSMB) on 40 subjects (8 subjects per cohort: 6 subjects in test group and 2 subjects in placebo group) in 5 dose groups (35 mg, 75 mg, 150 mg, 300 mg, 600 mg) selected from healthy male volunteers in Korea.
A test drug or placebo was mixed with an infusion solution by intravenous injection therapy, and then administered using an infusion pump for 30 minutes (±5 minutes).
Of the 40 test subjects who were administered the clinical test drug, a total of 6 test subjects developed 7 adverse reactions. There were no reported adverse reactions in the placebo-administered group. Of the 7 adverse reactions, 1 case of “dizziness” was a moderate symptom in the test subjects who were administered 600 mg, and all other adverse reactions corresponded to a mild symptom. The subjects were spontaneously recovered from all the adverse reactions without any sequelae. […] Accordingly, it was determined that the drug tolerability of a single dose of the test drug was good in the test dose range.

[3] = Population pharmacokinetics model (NONMEM) built on single dose phase 1 data; set-up: species or system human
Experimental: A pharmacokinetics model for administration of a test drug was established for integration with a quantitative pharmacokinetics model for simulating the efficacy and safety of test drugs, as well as simulating the pharmacokinetics of future doses and dosage regimens. The simulation was performed by constructing a pharmacokinetics model based on pharmacokinetics information and demographic information of a total of 30 test subjects who were administered 35 mg, 75 mg, 150 mg, 300 mg, and 600 mg among the test subjects who participated in the single dose clinical test of test drug phase 1. The analysis was performed by a non-linear mixed effect modeling method using NONMEM® (version 7.2; ICON Development Solutions, Ellicott City, Md., USA).
The population pharmacokinetics model was constructed in the order of structural model construction, covariate analysis, and model selection. As a first step, a basic structural model was constructed, and as a step of establishing a model capable of best explaining the change in drug concentration over time, the most pharmacologically and statistically suitable model was selected by performing a search in the order of a 1-compartment model, a 2-compartment model, and a 3-compartment model. As the next step, covariate analysis was performed, and the effects of age, height, body weight, serum creatine, BUN, albumin, AST, and ALT concentrations which are part of the demographic information on pharmacokinetics were quantitatively evaluated. Finally, model selection (internal validation) was performed, a simulation of the established model was performed, and this was evaluated by a visual predictive check (VPC), which is a schematic evaluation method.
The pattern of time-blood concentration changes of the test drug is best explained by a 3-compartment model with 1st order elimination. No significant covariate was found in the covariate analysis utilizing age, height, body weight, serum creatine, BUN, albumin, AST, and ALT concentrations.

[4] = tested on: patients with acute ischemic stroke; experiment: Phase II clinical test: change ratio of cerebral infarction lesion (MRI, day 4 vs baseline); assay type: in vivo, human
Experimental: as §1, §2, §3, §4
Diffusion weighted imaging (DWI) and gradient-recalled echo (GRE) or susceptibility weighted imaging (SWI), and magnetic resonance imaging (MRI) examination are performed within 90 minutes after reperfusion while administering a medicine for a clinical test, and this is utilized as a baseline result. A change ratio of cerebral infarction lesion at a time point of day 4 compared to the baseline was measured.
For comparison between a test group and the placebo, a two sample t-test is used after log conversion of an evaluation variable (infarct growth ratio). Additionally, a comparison between the test group and the placebo is made using a Wilcoxon rank sum test for a source data log which is not log-converted.
When factors that may affect prognosis should be corrected, analysis of covariance (ANCOVA) is used after log conversion of the evaluation variables (infarct growth ratio).
In patients who were administered a control drug or a test drug, the change ratio of cerebral infarction lesions among patients with similar baselines of cerebral infarction lesions was confirmed (Table 3).

healthy male volunteers [5] = experiment: Phase 1 clinical test, multi dose escalation: adverse reactions; assay type: in vivo, human
Experimental: as §5, with “a repeated” for “a single”, “on 24” for “on 40”, “in 3” for “in 5”, “groups (repeated administration of” for “groups (35 mg, 75 mg,”, “mg, and 450 mg seven times at intervals of 12 hours)” for “mg, 600 mg)”
A test drug or placebo was mixed with an infusion solution by intravenous injection therapy, and then administered using an infusion pump for 60 minutes (±10 minutes), and the same was repeatedly administered seven times at intervals of 12 hours.
Of the 24 test subjects who were administered the clinical test drug, a total of 7 test subjects developed 12 adverse reactions, and among them, 10 cases were confirmed to be adverse drug reactions. One case (one person) of an adverse reaction occurred in the placebo-administered group. […] Accordingly, it was determined that the tolerability of about 150 to 450 mg of the test drug during the repeated administration at intervals of 12 hours was good.

[6] = Cohort 1 (150 mg bolus + 750 mg infusion), n = 9
[7] = Cohort 2 (300 mg bolus + 1500 mg infusion), n = 6
[8] = 3-compartment model, structural model
[9] = interindividual variability, predicted value
[10] = Cohort 1, day 4 compared to baseline, individual patients 2, 4, 6, 8, dihydrochloride
[11] = repeated dose 150-450 mg, seven times at 12 h intervals

Structure (SMILES): CCOc1cc(CN2CCOCC2)cc2[nH]c(=O)c3c(c12)NCCC3 [10-ethoxy-8-(morpholinomethyl)-1,2,3,4-tetrahydrobenzo[h][1,6]naphthyridin-5(6H)-one]
- reducing cerebral infarction volume (tMCAO animal model): effective in reducing cerebral infarction volume

Structure (SMILES): CCOc1cc(CN2CCOCC2)cc2[nH]c(=O)c3c(c12)NCCC3.Cl.Cl [Test drug, 10-ethoxy-8-(morpholinomethyl)-1,2,3,4-tetrahydrobenzo[h][1,6]naphthyridin-5(6H)-one dihydrochloride]
- results of the K-mRS compared to control drug group ([1]; 900 mg of the test drug, day 90): far superior
- K-mRS classification at the time point of day 90: K-mRS 0~2 [1, 6]: 7(77.78) n(%)
- K-mRS classification at the time point of day 90: K-mRS 3~4 [1, 6]: 2(22.22) n(%)
- K-mRS classification at the time point of day 90: K-mRS 5~6 [1, 6]: 0 n(%)
- K-mRS (continuous variable) at the time point of day 90, 1st Quartile ([1]; Cohort 1 (900 mg), N = 9): 0.00
- K-mRS (continuous variable) at the time point of day 90, 3rd Quartile ([1]; Cohort 1 (900 mg), N = 9): 2.00
- K-mRS (continuous variable) at the time point of day 90, Max ([1]; Cohort 1 (900 mg), N = 9): 4.00
- K-mRS (continuous variable) at the time point of day 90, Mean(SD) ([1]; Cohort 1 (900 mg), N = 9): 1.44(1.42)
- K-mRS (continuous variable) at the time point of day 90, Median ([1]; Cohort 1 (900 mg), N = 9): 1.00
- K-mRS (continuous variable) at the time point of day 90, Min ([1]; Cohort 1 (900 mg), N = 9): 0.00
- K-mRS classification at the time point of day 90: K-mRS 0 ([1]; Cohort 1, N = 9): 3(33.33) n(%)
- K-mRS classification at the time point of day 90: K-mRS 1 ([1]; Cohort 1, N = 9): 2(22.22) n(%)
- K-mRS classification at the time point of day 90: K-mRS 2 ([1]; Cohort 1, N = 9): 2(22.22) n(%)
- K-mRS classification at the time point of day 90: K-mRS 3 ([1]; Cohort 1, N = 9): 1(11.11) n(%)
- K-mRS classification at the time point of day 90: K-mRS 4 ([1]; Cohort 1, N = 9): 1(11.11) n(%)
- K-mRS classification at the time point of day 90: K-mRS 5 ([1]; Cohort 1, N = 9): 0 n(%)
- K-mRS classification at the time point of day 90: K-mRS 6 ([1]; Cohort 1, N = 9): 0 n(%)
- K-mRS classification at the time point of day 90: K-mRS 0~2 [1, 7]: 1(20.00) n(%)
- K-mRS classification at the time point of day 90: K-mRS 3~4 [1, 7]: 3(60.00) n(%)
- K-mRS classification at the time point of day 90: K-mRS 5~6 [1, 7]: 1(20.00) n(%)
- number of adverse reactions (healthy male volunteers [2]; single IV dose 35-600 mg over 30 minutes, 40 test subjects): 7
- test subjects who developed adverse reactions (healthy male volunteers [2]; single IV dose 35-600 mg over 30 minutes, of the 40 test subjects, no adverse reactions in placebo group): 6
- moderate adverse reactions (dizziness), cases (healthy male volunteers [2]; single dose 600 mg, all other adverse reactions mild): 1
- significant adverse reactions (healthy male volunteers [2]; single dose 35-600 mg, entire clinical test): No significant adverse reactions occurred
- drug tolerability of a single dose (healthy male volunteers [2]; test dose range 35-600 mg IV): good
- 1st Clearance of peripheral compartment (Q1), predicted value [3, 8]: 162 L/h
- 1st Volume of peripheral compartment (V2), predicted value [3, 8]: 58.5 L
- 2nd Clearance of peripheral compartment (Q2), predicted value [3, 8]: 2.66 L/h
- 2nd Volume of peripheral compartment (V3), predicted value [3, 8]: 8.81 L
- Volume of central compartment (V1), predicted value [3, 8]: 15.2 L
- Clearance of central compartment (CL), predicted value ([3]; 3-compartment model, structural model, 30 subjects, 35-600 mg IV): 32.0 L/h
- Interindividual model CL [3, 9]: 43.8%
- Interindividual model Q1 [3, 9]: 41.7%
- Interindividual model Q2 [3, 9]: 28.1%
- Interindividual model V1 [3, 9]: 52.4%
- Interindividual model V2 [3, 9]: 20.2%
- Interindividual model V3 [3, 9]: 64.1%
- Cerebral infarction lesion, Baseline ([4]; Cohort 1 (150 mg bolus + 750 mg infusion), individual patients 2, 4, 6, 8, MRI within 90 minutes after reperfusion, dihydrochloride): 1.59 cc and 10.1 cc and 32 cc and 126.66 cc
- Cerebral infarction lesion, Time point of day 4 ([4]; Cohort 1 (150 mg bolus + 750 mg infusion), individual patients 2, 4, 6, 8, dihydrochloride): 2.67 cc and 10.94 cc and 45.33 cc and 127.61 cc
- Change ratio of cerebral infarction lesion [4, 10]: 1.68 and 1.08 and 1.42 and 1.01
- Rate of increase in cerebral infarction lesion [4, 10]: 67.9% and 8.3% and 41.7% and 0.8%
- rate of increase in cerebral infarction lesions compared to control drug group ([4]; patients with similar baselines, Table 3): significantly low rate of increase in cerebral infarction lesions
- test subjects who developed adverse reactions (healthy male volunteers [5]; 150, 300, 450 mg IV over 60 minutes, seven times at intervals of 12 hours, of the 24 test subjects, includes one person in placebo group): 7
- tolerability during repeated administration (healthy male volunteers [5]; about 150 to 450 mg at intervals of 12 hours): good
- significant adverse reactions (healthy male volunteers [5]; repeated dose 150-450 mg, entire clinical test): no significant adverse reactions occurred
- adverse reactions confirmed to be adverse drug reactions, cases (healthy male volunteers [5]; [11]): 10
- severity of adverse reactions (healthy male volunteers [5]; [11]): mild
- number of adverse reactions (healthy male volunteers [5]; repeated dose 150-450 mg, seven times at 12 h intervals, 24 test subjects, one case in placebo group): 12

— patent US20220265671A1, “METHOD FOR TREATING STROKE BY USING TRICYCLIC DERIVATIVE” (Jeil Pharmaceutical Co., Ltd., priority 2019, published 2022)
